Test results reported in EP3696177A1, “HETEROCYCLIC COMPOUNDS FOR THE CONTROL OF INVERTEBRATE PESTS” (BASF SE, priority 2019, dated 2020).

Assays:
Type in all cases: in vivo
[1] = tested on: Aedes aegypti; assay: whole plant or invertebrate; details: 48 h, A. aegypti larvae, incubated 2 days, read-out: mortality in comparison with untreated controls (larval mortality)
Protocol: For evaluating control of yellow fever mosquito (Aedes aegypti) the test unit consisted of 96-well-microtiter plates containing 200µl of tap water per well and 5-15 freshly hatched A. aegypti larvae.
The active compounds were formulated using a solution containing 75% (v/v) water and 25% (v/v) DMSO. Different concentrations of formulated compounds or mixtures were sprayed onto the insect diet at 2.5µl, using a custom built micro atomizer, at two replications.
After application, microtiter plates were incubated at 28 + 1°C, 80 + 5 % RH for 2 days. Larval mortality was then visually assessed.

[2] = tested on: Anthonomus grandis; assay: Boll weevil (Anthonomus grandis) insect diet microtiter plate test; details: 120 h, read-out: mortality in comparison with untreated controls (egg and larval mortality)
Protocol: For evaluating control of boll weevil (Anthonomus grandis) the test unit consisted of 96-well-microtiter plates containing an insect diet and 5-10 A. grandis eggs.
The compounds were formulated using a solution containing 75% v/v water and 25% v/v DMSO. Different concentrations of formulated compounds were sprayed onto the insect diet at 5 µl, using a custom built micro atomizer, at two replications.
After application, microtiter plates were incubated at about 25 + 1°C and about 75 + 5 % relative humidity for 5 days. Egg and larval mortality was then visually assessed.

[3] = tested on: dichromothrips corbetti; assay: Orchid thrips floral-immersion test; details: 72 h, read-out: mortality in comparison with untreated controls
Protocol: Dichromothrips corbetti adults used for bioassay are obtained from a colony maintained continu-ously under laboratory conditions. For testing purposes, the test compound is diluted in a 1:1 mix-ture of acetone:water (vol:vol), plus Kinetic at a rate of 0.01% v/v.
Thrips potency of each compound is evaluated by using a floral-immersion technique. Each orchid petal is dipped into treatment solution and allowed to dry in Petri dishes. Treated petals are placed into individual re-sealable plastic along with about 20 adult thrips. All test arenas are held under dark condition and a temperature of about 28°C for duration of the assay. The percent mor-tality is recorded 72 hours after treatment.

[4] = tested on: Heliothis virescens; assay: Tobacco budworm (Heliothis virescens) insect diet microtiter plate test; details: 120 h, read-out: mortality in comparison with untreated controls (egg and larval mortality)
Protocol: For evaluating control of tobacco budworm (Heliothis virescens) the test unit consisted of 96-well-microtiter plates containing an insect diet and 15-25 H. virescens eggs.
The compounds were formulated using a solution containing 75% v/v water and 25% v/v DMSO. Different concentrations of formulated compounds were sprayed onto the insect diet at 10 µl, us-ing a custom built micro atomizer, at two replications.
After application, microtiter plates were incubated at about 28 + 1°C and about 80 + 5 % relative humidity for 5 days. Egg and larval mortality was then visually assessed.

[5] = tested on: Megoura viciae; assay: Vetch aphid (Megoura viciae) broad bean leaf disk test; details: foliar, 120 h, read-out: mortality in comparison with untreated controls
Protocol: For evaluating control of vetch aphid (Megoura viciae) through contact or systemic means the test unit consisted of 24-well-microtiter plates containing broad bean leaf disks.
The compounds were formulated using a solution containing 75% v/v water and 25% v/v DMSO. Different concentrations of formulated compounds were sprayed onto the leaf disks at 2.5 µl, us-ing a custom built micro atomizer, at two replications.
After application, the leaf disks were air-dried and 5 - 8 adult aphids placed on the leaf disks in-side the microtiter plate wells. The aphids were then allowed to suck on the treated leaf disks and incubated at about 23 + 1°C and about 50 + 5 % relative humidity for 5 days. Aphid mortality and fecundity was then visually assessed.

[6] = tested on: Caenorhabditis elegans; assay: Caenorhabditis elegans liquid diet microtiter plate test; details: 96 h, read-out: mortality in comparison with untreated controls (nematode motility (mortality))
Protocol: For evaluating control of Caenorhabditis elegans through contact or systemic means the test unit consisted of 96-well-microtiter plates containing a liquid diet.
The compounds or mixtures were formulated using a solution containing 75% water and 25% DMSO. Different concentrations of formulated compounds were sprayed into the microtiter plate wells at 5µl per well, using a custom built micro atomizer, at two replications. Mixed instar 60-100 C. elegans were transferred into the micro-titer plate wells. After application, the nematodes were incubated at 18 + 1°C, 70 + 5 % RH for 4 days. Nematode motility (mortality) was then visually assessed.

[7] = tested on: Plutella xylostella; assay: Diamond back moth (Plutella xylostella) cabbage leaf disc dip test; details: foliar, 72 h, read-out: mortality in comparison with untreated controls
Protocol: The active compound is dissolved at the desired concentration in a mixture of 1:1 (vol:vol) distilled water: acetone. Surfactant (Kinetic) is added at a rate of 0.01% (vol/vol). The test solution is pre-pared at the day of use.
Cabbage leaf discs (60mm in diameter) are dipped in test solution and air-dried. Treated leaves are placed in petri dishes lined with moistened filter paper and inoculated with ten 3rd instar larvae. Mortality is recorded 72 hours after treatment. Feeding damage is also recorded using a scale of 0-100%.

[8] = tested on: Myzus persicae; assay: Green peach aphid (Myzus persicae) artificial diet/membrane systemic test; details: 72 h, read-out: mortality in comparison with untreated controls
From the text: For evaluating control of green peach aphid (Myzus persicae) through systemic means the test unit consisted of 96-well-microtiter plates containing liquid artificial diet under an artificial membrane.
The compounds were formulated using a solution containing 75% v/v water and 25% v/v DMSO. Different concentrations of formulated compounds were pipetted into the aphid diet, using a cus-tom built pipetter, at two replications.
After application, 5 - 8 adult aphids were placed on the artificial membrane inside the microtiter plate wells. The aphids were then allowed to suck on the treated aphid diet and incubated at about 23 + 1°C and about 50 + 5 % relative humidity for 3 days. Aphid mortality and fecundity was then visually assessed.

[9] = tested on: Tetranychus kanzawai; assay: Red spider mite (Tetranychus kanzawai) spray test on cowpea beans; details: topical, 72 h, read-out: mortality in comparison with untreated controls
Protocol: The active compound is dissolved at the desired concentration in a mixture of 1:1 (vol:vol) distilled water: acetone. Add surfactant (Kinetic) is added at a rate of 0.01% (vol/vol). The test solution is prepared at the day of use.
Potted cowpea beans of 4-5 days of age are cleaned with tap water and sprayed with 1-2 ml of the test solution using air driven DeVilbiss® hand atomizer at 20- 30 psi (≈ 1,38 to 2,07 bar). The treated plants are allowed to air dry and afterwards inoculated with 30 or more mites by clipping a cassava leaf section from rearing population. Treated plants are placed inside a holding room at about 25-26°C and about 65-70% relative humidity. Estimate percent mortality is assessed 72 hours after treatment.

[10] = tested on: Nephotettix virescens; assay: Rice green leafhopper (Nephotettix virescens) spray test on rice seedlings; details: adults, after 72 hours, read-out: mortality in comparison with untreated controls
Protocol: Four to five-week old rice seedlings with cut upper leaf portion are cleaned and washed 24 hours before spraying. The active compounds are formulated in 1:1 acetone:water (vol:vol), and 0.01% vol/vol surfactant (Kinetic) is added. Potted rice seedlings are sprayed with 5-6 ml test solution, air dried, covered with Mylar cages and inoculated with 10 adults. Treated rice plants are kept at about 28-29°C and relative humidity of about 50-60%. Percent mortality is recorded after 72 hours.

CCN1COC(CNC(=O)c2ccc(C3=NOC(c4cc(Cl)cc(Cl)c4)(C(F)(F)F)C3)cc2Cl)C1=O (centres unmarked) [Compound I-3-8]
> 75%: mortality at 2500 ppm [1] | mortality at 2500 ppm [2] | mortality at 300 ppm [3] | mortality at 2500 ppm [4] | mortality at 2500 ppm [5] | mortality at 2500 ppm [6] | mortality at 300 ppm [7] | mortality at 2500 ppm [8]

Cc1cc(C2=NOC(c3cc(Cl)cc(Cl)c3)(C(F)(F)F)C2)ccc1C(=O)NCC1OC(=O)N(C)C1=O (centres unmarked) [Compound I-4-4]
> 75%: mortality at 300 ppm [9] | mortality at 2500 ppm [1] | mortality at 2500 ppm [2] | mortality at 300 ppm [3] | mortality at 2500 ppm [4] | mortality at 2500 ppm [5] | mortality at 2500 ppm [6] | mortality at 300 ppm [7] | mortality at 2500 ppm [8]

CN1C(=O)OC(CNC(=O)c2ccc(C3=NOC(c4cc(Cl)cc(Cl)c4)(C(F)(F)F)C3)cc2Cl)C1=O (centres unmarked) [Compound I-4-1, 2-chloro-4-[5-(3,5-dichlorophenyl)-5-(trifluoromethyl)-4H-isoxazol-3-yl]-N-[(3-methyl-2,4-dioxo-oxazolidin-5-yl)methyl]benzamide]
> 75%: mortality at 2500 ppm [2] | mortality at 300 ppm [3] | mortality at 2500 ppm [4] | mortality at 2500 ppm [5] | mortality at 2500 ppm [6] | mortality at 300 ppm [7] | mortality at 2500 ppm [8]

O=C(NCC1OCN(CC2CC2)C1=O)c1ccc(C2=NOC(c3cc(Cl)c(F)c(Cl)c3)(C(F)(F)F)C2)c2c1CCC2 (centres unmarked) [Compound I-3-2]
> 75%: mortality at 300 ppm [9] | mortality at 2500 ppm [1] | mortality at 2500 ppm [2] | mortality at 300 ppm [3] | mortality at 300 ppm [10] | mortality at 2500 ppm [4] | mortality at 2500 ppm [5] | mortality at 2500 ppm [6] | mortality at 300 ppm [7] | mortality at 2500 ppm [8]

Cc1cc(C2=NOC(c3cc(Cl)cc(Cl)c3)(C(F)(F)F)C2)ccc1C(=O)NCC1OCN(CC2CC2)C1=O (centres unmarked) [Compound I-3-14]
> 75%: mortality at 300 ppm [9] | mortality at 2500 ppm [1] | mortality at 2500 ppm [2] | mortality at 300 ppm [3] | mortality at 2500 ppm [4] | mortality at 2500 ppm [5] | mortality at 2500 ppm [6] | mortality at 300 ppm [7] | mortality at 2500 ppm [8]

O=C(NCC1OCN(CC2CC2)C1=O)c1ccc(C2=NOC(c3cc(Cl)cc(Cl)c3)(C(F)(F)F)C2)cc1Cl (centres unmarked) [Compound I-3-10]
> 75%: mortality at 2500 ppm [1] | mortality at 2500 ppm [2] | mortality at 300 ppm [3] | mortality at 2500 ppm [4] | mortality at 2500 ppm [6] | mortality at 300 ppm [7] | mortality at 2500 ppm [8]

O=C(NCC1OCN(CC(F)(F)F)C1=O)c1ccc(C2=NOC(c3cc(Cl)cc(Cl)c3)(C(F)(F)F)C2)cc1Cl (centres unmarked) [Compound I-3-9]
> 75%: mortality at 2500 ppm [1] | mortality at 2500 ppm [2] | mortality at 300 ppm [3] | mortality at 2500 ppm [4] | mortality at 2500 ppm [5] | mortality at 2500 ppm [6] | mortality at 300 ppm [7] | mortality at 2500 ppm [8]

O=C(NCC1OCN(CC2CC2)C1=O)c1ccc(C2=NOC(c3cc(Cl)cc(C(F)(F)F)c3)(C(F)(F)F)C2)c2c1CCC2 (centres unmarked) [Compound I-3-4]
> 75%: mortality at 2500 ppm [1] | mortality at 2500 ppm [2] | mortality at 300 ppm [3] | mortality at 2500 ppm [4] | mortality at 2500 ppm [5] | mortality at 300 ppm [7] | mortality at 2500 ppm [8]

Cc1cc(C2=NOC(c3cc(Cl)cc(Cl)c3)(C(F)(F)F)C2)ccc1C(=O)NCC1OC(=O)N(CC(F)(F)F)C1=O (centres unmarked) [Compound I-4-5]
> 75%: mortality at 2500 ppm [1] | mortality at 2500 ppm [2] | mortality at 300 ppm [3] | mortality at 2500 ppm [4] | mortality at 2500 ppm [5] | mortality at 2500 ppm [6] | mortality at 300 ppm [7] | mortality at 2500 ppm [8]

Cc1cc(C2=NOC(c3cc(Cl)cc(Cl)c3)(C(F)(F)F)C2)ccc1C(=O)NCC1OC(=O)N(CC2CC2)C1=O (centres unmarked) [Compound I-4-6]
> 75%: mortality at 2500 ppm [1] | mortality at 2500 ppm [2] | mortality at 300 ppm [3] | mortality at 2500 ppm [4] | mortality at 2500 ppm [5] | mortality at 2500 ppm [6] | mortality at 300 ppm [7] | mortality at 2500 ppm [8]

O=C(NCC1OCN(CC2CC2)C1=O)c1ccc(C2=NOC(c3cc(Cl)c(F)c(Cl)c3)(C(F)(F)F)C2)cc1Cl (centres unmarked) [Compound I-3-6]
> 75%: mortality at 2500 ppm [1] | mortality at 2500 ppm [2] | mortality at 300 ppm [3] | mortality at 2500 ppm [4] | mortality at 2500 ppm [5] | mortality at 300 ppm [7] | mortality at 2500 ppm [8]

O=C(NCC1OC(=O)N(CC2CC2)C1=O)c1ccc(C2=NOC(c3cc(Cl)cc(Cl)c3)(C(F)(F)F)C2)cc1Cl (centres unmarked) [Compound I-4-3]
> 75%: mortality at 2500 ppm [1] | mortality at 2500 ppm [2] | mortality at 300 ppm [3] | mortality at 2500 ppm [4] | mortality at 2500 ppm [5] | mortality at 2500 ppm [6] | mortality at 300 ppm [7] | mortality at 2500 ppm [8]

Cc1cc(C2=NOC(c3cc(Cl)cc(Cl)c3)(C(F)(F)F)C2)ccc1C(=O)NCC1OCN(CC(F)(F)F)C1=O (centres unmarked) [Compound I-3-13]
> 75%: mortality at 300 ppm [9] | mortality at 2500 ppm [1] | mortality at 2500 ppm [2] | mortality at 300 ppm [3] | mortality at 2500 ppm [4] | mortality at 2500 ppm [5] | mortality at 2500 ppm [6] | mortality at 300 ppm [7] | mortality at 2500 ppm [8]

O=C(NCC1OC(=O)N(CC(F)(F)F)C1=O)c1ccc(C2=NOC(c3cc(Cl)cc(Cl)c3)(C(F)(F)F)C2)cc1Cl (centres unmarked) [Compound I-4-2]
> 75%: mortality at 2500 ppm [1] | mortality at 2500 ppm [2] | mortality at 300 ppm [3] | mortality at 2500 ppm [4] | mortality at 2500 ppm [5] | mortality at 2500 ppm [6] | mortality at 300 ppm [7] | mortality at 2500 ppm [8]
